From patent publication US10512648B2, “Tyrosine kinase inhibitors for use in a method of treating cancer in association with a reduced caloric intake” (UNIVERSITÀ DEGLI STUDI DI GENOVA, priority 2014, dated 2019)

Experiments:
H3122 cells [1] = assay: viability of H3122 cells, sulforodhamine B-based assay, regular medium (CTR) vs STS conditions; type: cell-based; conditions: H3122 NSCLC cells (EML4-ALK translocation); low glucose 0.5 g/L, 1% FBS (STS) vs regular medium; 72 h
Method: With reference to FIGS. 1A and 1B, 3×10^3 H3122 cells were plated in 96 well plates in regular DMEM medium containing 10% FBS. 24 h later, the cell medium was removed and cells were incubated for 24 h either in the same medium (CTR) or in low-glucose (0.5 g/L) DMEM medium containing 1% FBS (STS). 24 h later cells were treated or not with the indicated concentrations of Crizotinib or […] (TAE). 72 h later, viability was measured with sulforodhamine B-based assays.

H3122 cells [2] = assay: H3122 cells in Petri dishes, sulforodhamine B staining after treatment and recovery; type: cell-based; conditions: H3122, STS conditions, 400 nM, 5 days then 2 days regular medium (FIG. 1C)
Method: With reference to FIG. 1C, 10^5 H3122 cells were plated in 60 mm Petri dishes in regular DMEM medium. 24 h later, the cell medium was removed and cells were incubated for 24 h either in regular medium (CTR) or in STS conditions. 24 h later 400 nM Crizotinib was added (or not) to the cells. 5 days later, the cell medium was removed and the cells were cultured for two additional days in regular DMEM medium. 48 h later, the plates were stained with sulforodhamine B and photographed.

A549 cells = assay: viability of A549 cells, sulforodhamine B-based assay, with or without STS; type: cell-based
Method: With reference to FIG. 1D, 3×10^3 A549 cells were plated in 96 well plates and treated with Crizotinib in the presence or absence of STS, as in the experiments of FIGS. 1A and 1B, before viability was measured in sulforodhamine B-based assays.

[3] = test system: phospho-ERK (Thr202/Tyr204); assay: immunoblotting of phospho-ERK and total ERK in H3122 cell lysates; type: cell-based; conditions: H3122, 400 nM, 24 h; starved cells compared with cells in standard conditions
Method: With reference to FIG. 1E, 10^5 H3122 cells were plated in 6 well plates in regular DMEM medium containing 10% FBS. 24 h later, the cell medium was removed and cells were incubated for 24 h either in the same medium (CTR) or in low-glucose (0.5 g/L) DMEM containing 1% FBS (STS). 24 h later cells were treated or not with 400 nM Crizotinib. After 24 h, cell were used for cell lysate preparation and phospho-ERK (Thr202/Tyr204), and total ERK levels were detected by immunoblotting.

[4] = test system: H3122 cells engineered to overexpress HRAS or HRAS V12; assay: sensitivity of H3122 cells engineered to overexpress HRAS or HRAS V12; type: cell-based; conditions: data not shown
H3122 xenografts = assay: H3122 xenograft growth in mice; type: in vivo, BALB/c athymic mice (nu+/nu+)
Method: With reference to FIG. 2A, six- to eight-week-old BALB/c athymic mice (nu+/nu+) were injected s.c. with 5×10^6 H3122 cells. When tumors became palpable, mouse were randomly assigned to one of four arms (six mice per treatment arm): control—normal diet (—); Crizotinib—normal diet with 3 cycles of Crizotinib (25 mg/kg/day via oral gavage for 5 days a week, Mon-Fri); STS [fasting (water only) for 48 h (Sun-Tue) for three cycles at 1-week intervals]; STS+Crizotinib. Tumor size was measured daily and tumor volume was calculated using the formula: tumor volume=(w^2×W)×π/6, where “w” and “W” are “minor side” and “major side” (in mm), respectively. At the end of treatment, mice were euthanized and tumor masses were excised and weighted (see FIG. 2B). Mouse weight was also monitored daily.

SKBR3 cells = assay: viability of SKBR3 cells, sulforodhamine B-based assay, CTR vs STS; type: cell-based; conditions: SKBR3 HER2+ BC cells, 100 nM, 72 h
Method: With reference to FIGS. 3A and 3B, 3×10^3 SKBR3 (FIG. 3A) or BT474 (FIG. 3B) cells/well were plated in 96 well plates in regular DMEM medium containing 10% FBS and 2.5 g/L glucose. 24 h later, the cell medium was removed and cells were incubated for 24 h either in the same medium (CTR) or in low-glucose (0.5 g/L) DMEM medium containing 1% FBS (STS). 24 h later cells were treated or not with 100 nM Lapatinib. 72 h later, viability was measured in sulforodhamine B-based assays.
With reference to FIGS. 3D and 3E, BT474 or MCF7 cells were plated as detailed with regard to FIGS. 3A and 3B, treated with 100 nM CP724714 (FIG. 3D) or Lapatinib (FIG. 3E) with or without STS conditions as detailed with respect to FIGS. 3A and 3B before viability was detected.

BT474 cells = assay: viability of BT474 cells, sulforodhamine B-based assay, CTR vs STS; type: cell-based; conditions: BT474 HER2+ BC cells, 100 nM, 72 h
MCF7 cells = assay: viability of MCF7 cells, with or without STS conditions; type: cell-based
AKT and ERK1/2 signaling [5] = assay: immunoblotting of phospho-AKT, total AKT, phospho-ERK and total ERK in SKBR3 cell lysates; type: cell-based; conditions: SKBR3, 100 nM, 24 h; STS-mimicking conditions compared with Lapatinib alone (FIG. 4A)
Method: (§1) With reference to FIGS. 4A-C, 10^5 SKBR3 (FIG. 4A) or BT474 (FIG. 4B) cells were plated in 6 well plates in regular DMEM medium containing 10% FBS. 24 h later, the cell medium was removed and cells were incubated for 24 h either in the same medium (CTR) or in low-glucose (0.5 g/L) DMEM medium containing 1% FBS (STS). 24 h later cells were treated or not with 100 nM Lapatinib. After 24 h, cell were either used for cell lysate preparation or for flow cytometry assays. Cell lysates were used for phospho-AKT (Ser473), total AKT, phospho-ERK (Thr202/Tyr204), and total ERK level detection by immunoblotting (FIGS. 4A and 4B). Flow cytometry (with a FACS Calibur, BD) was used to estimate cell size (FSC) by acquiring 10,000 events per cell sample (FIG. 4C).

AKT and ERK1/2 signaling [6] = assay: immunoblotting of phospho-AKT, total AKT, phospho-ERK and total ERK in BT474 cell lysates; type: cell-based; conditions: BT474, 100 nM, 24 h; STS-mimicking conditions compared with Lapatinib alone (FIG. 4B)
Method: as §1

SMILES	effect of STS conditions on activity (viability of H3122 cells) (H3122 cells [1])	killing of NSCLC cells (H3122 cells [2])	sensitivity of A549 cells (viability) (A549 cells; A549 NSCLC cells without EML4-ALK translocation)	effect of STS on activity in A549 cells (A549 cells; A549 cells, STS vs regular medium)	blocking of MAPK pathway signaling (ERK1/2 phosphorylation) [3]	sensitivity of HRAS or HRAS V12 overexpressing H3122 cells [4]	activity on H3122 xenografts of the combination with fasting (H3122 xenografts; 25 mg/kg/day oral gavage plus 48 h fasting cycles, compared with each treatment alone, p<0.05)	growth of H3122 xenografts (H3122 xenografts; normal diet, 25 mg/kg/day oral gavage, 5 days a week, 3 cycles)	sensitization by STS conditions (viability of SKBR3 cells) (SKBR3 cells)	sensitization by STS conditions (viability of BT474 cells) (BT474 cells)	sensitivity of MCF7 cells (viability) (MCF7 cells; MCF7 cells without HER2 amplification, 100 nM)	effect of STS on activity in MCF7 cells (MCF7 cells; MCF7 cells, STS vs CTR)	inhibition of AKT and ERK1/2 signaling (AKT and ERK1/2 signaling [5])	inhibition of AKT and ERK1/2 signaling (AKT and ERK1/2 signaling [6])
C[C@@H](Oc1cc(-c2cnn(C3CCNCC3)c2)cnc1N)c1c(Cl)ccc(F)c1Cl [Crizotinib]	strongly potentiated	virtual complete killing	insensitive	did not increase the activity	more effective at blocking signaling through the MAPK pathway	resistant	more active than either type of treatment alone	effectively reduced the growth	–	–	–	–	–	–
CS(=O)(=O)CCNCc1ccc(-c2ccc3ncnc(Nc4ccc(OCc5cccc(F)c5)c(Cl)c4)c3c2)o1 [Lapatinib]	–	–	–	–	–	–	–	–	strongly sensitized	strongly sensitized	insensitive	failed to enhance the activity	more pronounced inhibition	more pronounced inhibition
COc1cc(N2CCC(N3CCN(C)CC3)CC2)ccc1Nc1ncc(Cl)c(Nc2ccccc2S(=O)(=O)C(C)C)n1 [TAE684]	strongly potentiated	–	–	–	–	–	–	–	–	–	–	–	–	–
